Source: ChEMBL document CHEMBL3421625, “Discovery and optimization of novel antagonists to the human neurokinin-3 receptor for the treatment of sex-hormone disorders (Part I)” (J Med Chem, 2015)
Converted amounts (≈) assume the structure as drawn.

Key:
[1] = Total systemic clearance in Sprague-Dawley rat at 1 mg/kg, iv by LC-MS/MS analysis; format: ADME, organism-based; design: dose 1 mg/kg, route intravenous; conditions: in vivo
[2] = tested on: Rattus norvegicus; assay: Unbound AUC in Sprague-Dawley rat at 3 mg/kg, po by LC-MS/MS analysis; format: ADME, organism-based; design: dose 3 mg/kg, route oral; conditions: in vivo
[3] = biological target: Cytochrome P450 2C9 (Homo sapiens, UniProt P11712); assay: Inhibition of CYP2C9 (unknown origin) by luciferase reporter assay in presence of NADPH regeneration system; format: ADME
[4] = biological target: Cytochrome P450 2D6 (Homo sapiens, UniProt P10635); assay: Inhibition of CYP2D6 (unknown origin) by luciferase reporter assay in presence of NADPH regeneration system; format: ADME
[5] = in vivo; conditions: Sprague-Dawley, rat, po, 3 mg/kg
[6] = Lipophilicity, log D of the compound at pH 7.4; format: physicochemical; conditions: buffer
[7] = Ratio of unbound drug level in brain to plasma in Sprague-Dawley rat at 1 mg/kg, iv measured at 60 mins; conditions: brain and plasma
[8] = tested on: Rattus norvegicus; assay: Unbound Cmax in Sprague-Dawley rat at 3 mg/kg, po by LC-MS/MS analysis; format: ADME, organism-based; design: dose 3 mg/kg, route oral; conditions: in vivo
[9] = biological target: Substance-P receptor (Homo sapiens, UniProt P25103)
Description: Displacement of [3H]-Substance P from human NK1R after 90 mins by scintillation counting analysis

[10] = Fraction unbound in rat plasma at 5 uM after 4 hrs by equilibrium dialysis method; format: ADME, cell-free
[11] = biological target: T1, Neuromedin-K receptor (Rattus norvegicus, UniProt P16177)
T1 sequence (P16177 whole entry): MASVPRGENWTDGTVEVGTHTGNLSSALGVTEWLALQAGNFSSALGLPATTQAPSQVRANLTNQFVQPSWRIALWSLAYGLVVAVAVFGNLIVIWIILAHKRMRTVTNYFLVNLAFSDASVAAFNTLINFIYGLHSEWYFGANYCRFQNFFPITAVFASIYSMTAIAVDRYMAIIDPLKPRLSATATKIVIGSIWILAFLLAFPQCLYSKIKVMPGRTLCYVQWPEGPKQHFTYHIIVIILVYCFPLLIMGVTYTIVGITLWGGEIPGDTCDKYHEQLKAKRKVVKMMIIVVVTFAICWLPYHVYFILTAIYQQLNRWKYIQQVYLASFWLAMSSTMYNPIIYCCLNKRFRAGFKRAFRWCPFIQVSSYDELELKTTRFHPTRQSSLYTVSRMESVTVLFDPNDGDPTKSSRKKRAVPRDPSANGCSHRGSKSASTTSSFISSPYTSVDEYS
Description: Displacement of [3H]-SB222200 from rat NK3R after 90 mins by scintillation counting analysis

[12] = biological target: Cytochrome P450 2C19 (Homo sapiens, UniProt P33261); assay: Inhibition of CYP2C19 (unknown origin) by luciferase reporter assay in presence of NADPH regeneration system
[13] = Ratio of unbound drug level in brain to plasma in Sprague-Dawley rat at 1 mg/kg, iv measured at 10 mins; conditions: brain and plasma
[14] = Solubility of the compound in PBS buffer at pH 7.4 by shake-flask method; format: physicochemical
[15] = biological target: T2, Cytochrome P450 1A2 (Homo sapiens, UniProt P05177); assay: Inhibition of CYP1A2 (unknown origin) by luciferase reporter assay in presence of NADPH regeneration system; format: ADME
T2 sequence (P05177 whole entry): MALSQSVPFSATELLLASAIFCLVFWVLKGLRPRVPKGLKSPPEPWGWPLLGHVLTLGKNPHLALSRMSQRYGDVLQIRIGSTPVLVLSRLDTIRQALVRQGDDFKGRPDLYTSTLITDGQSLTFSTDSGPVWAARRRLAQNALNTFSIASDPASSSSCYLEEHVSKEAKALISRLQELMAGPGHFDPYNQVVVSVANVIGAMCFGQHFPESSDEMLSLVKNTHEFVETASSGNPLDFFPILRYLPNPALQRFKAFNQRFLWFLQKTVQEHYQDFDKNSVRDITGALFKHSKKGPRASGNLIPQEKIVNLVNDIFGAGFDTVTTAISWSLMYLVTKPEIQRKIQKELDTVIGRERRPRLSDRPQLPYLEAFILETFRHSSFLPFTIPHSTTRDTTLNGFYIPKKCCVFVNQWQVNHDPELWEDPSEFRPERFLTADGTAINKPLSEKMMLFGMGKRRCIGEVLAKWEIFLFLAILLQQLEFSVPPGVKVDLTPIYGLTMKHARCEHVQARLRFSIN

[16] = in vivo; conditions: Sprague-Dawley, rat, po, 3 mg/kg; remark: listed apart in the source
[17] = tested on: Rattus norvegicus; assay: Unbound AUC in Sprague-Dawley rat at 1 mg/kg, iv by LC-MS/MS analysis; format: ADME, organism-based; design: dose 1 mg/kg, route intravenous; conditions: in vivo
[18] = Fraction unbound in rat brain at 5 uM after 4 hrs by equilibrium dialysis method; format: ADME, tissue-based
[19] = biological target: T3, NK-3 receptor (Macaca mulatta, UniProt Q2WGM0)
T3 sequence (Q2WGM0 whole entry): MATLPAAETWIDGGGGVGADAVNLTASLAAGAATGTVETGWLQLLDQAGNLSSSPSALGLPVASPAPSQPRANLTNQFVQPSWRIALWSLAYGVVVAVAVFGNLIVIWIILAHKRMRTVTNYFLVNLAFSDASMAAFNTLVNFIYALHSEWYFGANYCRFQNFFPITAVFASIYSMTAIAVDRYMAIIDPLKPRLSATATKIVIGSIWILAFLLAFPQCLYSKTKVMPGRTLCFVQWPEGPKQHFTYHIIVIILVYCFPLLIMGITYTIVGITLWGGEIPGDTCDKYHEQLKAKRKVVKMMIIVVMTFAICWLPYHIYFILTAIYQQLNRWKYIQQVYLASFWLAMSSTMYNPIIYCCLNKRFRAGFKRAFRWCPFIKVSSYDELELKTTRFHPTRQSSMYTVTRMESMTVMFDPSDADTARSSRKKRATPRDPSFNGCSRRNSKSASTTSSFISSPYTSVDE
Description: Displacement of [3H]-SB222200 from monkey NK3R after 90 mins by scintillation counting analysis

[20] = biological target: T4, Gonadotropin-releasing hormone receptor (Homo sapiens) (UniProt P30968); assay: Inhibition of GnRH-R (unknown origin) at 10 uM relative to control
T4 sequence (whole entry): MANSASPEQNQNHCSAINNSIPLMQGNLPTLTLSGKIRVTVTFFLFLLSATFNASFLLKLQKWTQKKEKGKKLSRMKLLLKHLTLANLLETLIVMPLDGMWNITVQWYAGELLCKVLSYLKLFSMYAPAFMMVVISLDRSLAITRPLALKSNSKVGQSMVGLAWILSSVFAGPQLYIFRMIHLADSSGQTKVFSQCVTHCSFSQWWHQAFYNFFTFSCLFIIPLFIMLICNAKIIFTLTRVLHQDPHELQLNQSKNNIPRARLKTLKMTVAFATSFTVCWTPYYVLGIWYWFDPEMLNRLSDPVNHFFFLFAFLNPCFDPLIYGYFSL

[21] = in vivo; conditions: Sprague-Dawley, rat, iv, 1 mg/kg
Description: Volume of distribution at steady state in Sprague-Dawley rat at 1 mg/kg, iv by LC-MS/MS analysis

[22] = biological target: Cytochrome P450 3A4 (Homo sapiens, UniProt P08684); assay: Inhibition of CYP3A4 (unknown origin) by luciferase reporter assay in presence of NADPH regeneration system; format: ADME
[23] = tested on: Rattus norvegicus; assay: Hepatotoxicity in Sprague-Dawley rat assessed as effect on AST level at 30 mg/kg, po bid administered for 5 days; format: toxicity, organism-based; design: dose 30 mg/kg, route oral; conditions: in vivo, 120 h

Cytochrome P450 2D6, sequence (P10635 whole entry): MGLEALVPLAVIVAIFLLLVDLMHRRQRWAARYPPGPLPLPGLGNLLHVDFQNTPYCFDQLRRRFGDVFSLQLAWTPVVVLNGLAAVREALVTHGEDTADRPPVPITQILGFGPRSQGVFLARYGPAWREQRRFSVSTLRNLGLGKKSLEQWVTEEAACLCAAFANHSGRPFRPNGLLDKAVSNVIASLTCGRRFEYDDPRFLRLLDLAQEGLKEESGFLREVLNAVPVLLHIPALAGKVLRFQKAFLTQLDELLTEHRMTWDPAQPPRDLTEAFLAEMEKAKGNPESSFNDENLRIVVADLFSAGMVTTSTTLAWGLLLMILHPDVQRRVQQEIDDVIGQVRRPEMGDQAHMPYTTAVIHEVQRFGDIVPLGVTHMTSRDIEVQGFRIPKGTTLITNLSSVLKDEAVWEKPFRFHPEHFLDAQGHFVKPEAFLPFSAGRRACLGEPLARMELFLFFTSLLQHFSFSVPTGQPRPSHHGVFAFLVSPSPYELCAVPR
Cytochrome P450 2C9, sequence (P11712 whole entry): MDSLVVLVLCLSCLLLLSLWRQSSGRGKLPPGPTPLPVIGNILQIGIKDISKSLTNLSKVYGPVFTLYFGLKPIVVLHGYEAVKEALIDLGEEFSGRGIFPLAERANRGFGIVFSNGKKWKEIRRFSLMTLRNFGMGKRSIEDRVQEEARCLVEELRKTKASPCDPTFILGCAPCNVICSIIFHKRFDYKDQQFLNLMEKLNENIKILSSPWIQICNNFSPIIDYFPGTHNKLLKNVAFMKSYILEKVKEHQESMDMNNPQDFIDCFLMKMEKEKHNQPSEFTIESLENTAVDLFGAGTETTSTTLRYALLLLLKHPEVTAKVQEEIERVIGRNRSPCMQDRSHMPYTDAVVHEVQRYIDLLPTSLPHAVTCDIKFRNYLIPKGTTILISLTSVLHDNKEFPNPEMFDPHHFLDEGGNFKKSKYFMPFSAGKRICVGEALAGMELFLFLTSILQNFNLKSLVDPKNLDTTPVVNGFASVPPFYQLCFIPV
Cytochrome P450 2C19, sequence (P33261 whole entry): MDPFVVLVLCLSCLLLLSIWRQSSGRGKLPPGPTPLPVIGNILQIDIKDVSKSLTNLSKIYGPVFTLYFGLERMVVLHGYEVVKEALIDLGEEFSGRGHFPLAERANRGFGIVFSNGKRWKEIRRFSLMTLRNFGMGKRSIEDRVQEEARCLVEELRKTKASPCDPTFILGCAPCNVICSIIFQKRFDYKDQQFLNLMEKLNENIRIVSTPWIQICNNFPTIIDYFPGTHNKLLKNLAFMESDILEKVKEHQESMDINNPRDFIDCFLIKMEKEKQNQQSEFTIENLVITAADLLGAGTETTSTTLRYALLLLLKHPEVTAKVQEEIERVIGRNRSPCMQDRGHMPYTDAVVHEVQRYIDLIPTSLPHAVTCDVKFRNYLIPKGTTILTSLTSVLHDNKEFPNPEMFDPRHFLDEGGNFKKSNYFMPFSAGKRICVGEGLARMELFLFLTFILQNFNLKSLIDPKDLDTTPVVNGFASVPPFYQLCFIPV
Cytochrome P450 3A4, sequence (P08684 whole entry): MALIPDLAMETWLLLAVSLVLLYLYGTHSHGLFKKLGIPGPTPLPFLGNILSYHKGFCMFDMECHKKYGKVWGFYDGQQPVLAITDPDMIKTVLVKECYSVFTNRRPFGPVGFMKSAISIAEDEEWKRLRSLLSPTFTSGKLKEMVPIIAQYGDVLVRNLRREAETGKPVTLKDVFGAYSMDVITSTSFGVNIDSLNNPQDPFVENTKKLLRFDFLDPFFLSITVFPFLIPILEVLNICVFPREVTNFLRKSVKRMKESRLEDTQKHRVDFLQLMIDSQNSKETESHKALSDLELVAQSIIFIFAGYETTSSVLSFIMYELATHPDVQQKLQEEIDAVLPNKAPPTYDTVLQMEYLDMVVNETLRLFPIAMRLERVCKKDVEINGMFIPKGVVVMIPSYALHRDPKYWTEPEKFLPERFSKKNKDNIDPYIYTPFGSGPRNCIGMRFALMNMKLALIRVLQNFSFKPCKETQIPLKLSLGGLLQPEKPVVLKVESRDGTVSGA
Substance-P receptor, sequence (P25103 whole entry): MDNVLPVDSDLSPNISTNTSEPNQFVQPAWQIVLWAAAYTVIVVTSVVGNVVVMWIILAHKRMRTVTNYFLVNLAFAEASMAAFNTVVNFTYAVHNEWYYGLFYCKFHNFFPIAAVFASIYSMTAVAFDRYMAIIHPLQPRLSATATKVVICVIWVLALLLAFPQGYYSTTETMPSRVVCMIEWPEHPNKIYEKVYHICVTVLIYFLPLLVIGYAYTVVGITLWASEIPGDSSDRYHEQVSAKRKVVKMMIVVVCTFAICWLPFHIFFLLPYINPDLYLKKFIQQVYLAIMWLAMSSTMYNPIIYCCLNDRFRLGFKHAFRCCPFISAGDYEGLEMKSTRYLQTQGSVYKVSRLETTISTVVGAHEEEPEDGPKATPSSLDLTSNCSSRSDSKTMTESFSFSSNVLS

| SMILES | clearance [1] [mL/min/kg] | fAUC [2] [µM·min] | IC50 [3] [µM] | IC50 [4] [µM] | Tmax [5] [min] | Kp uu at 1 h [7] | fCmax [8] [nM] | fraction unbound at 4 h, 5 µM [10] | Ki [11] [µM] | IC50 [12] [µM] | Kp uu at 10 min [13] | solubility thermodynamic [14] [µM] | IC50 [15] [µM] | fAUC [17] [µM·min] | fraction unbound at 4 h, 5 µM [18] | Ki [19] [µM] | inhibition [20] [%] | Vd [21] [L/kg] | IC50 [22] [µM] | further results |
| --- | --- | --- | --- | --- | --- | --- | --- | --- | --- | --- | --- | --- | --- | --- | --- | --- | --- | --- | --- | --- |
| C[C@@H]1c2nnc(-c3csc(-c4ccc(F)cc4F)n3)n2CCN1C(=O)c1ccc(-c2cccs2)cc1 | 8.9 | 0.1 | 3 | 7 | 45 | 2.5 | 0.14 | 0.0008 | 0.013 | 4 | 1.9 | 0.4 (≈ 0.208 µg/mL) | 21 | 0.2 | 0.001 | 0.00398 | 35 | 4.1 | 19 | logD [6]: 5; Ki [9]: 1.26 µM; bioavailability [16]: 17% |
| Cc1nc(-c2nnc3n2CCN(C(=O)c2ccc(-c4cccs4)cc2)[C@@H]3C)cs1 | 7.4 | 60.3 | 21 | > 100 | 45 | 0.1 | 443 | 0.055 | 0.076 | 34 | 0.2 | 118 (≈ 49.7 µg/mL) | 26 | 16.9 | 0.028 | 0.02 | 30 | 1.4 | 50 | Activity [23]: Non-toxic; logD ([6]; read-out: logD): 3.1 |
